Measured values published in patent publication US10927128B2, “Oxadiazaspiro compounds for the treatment of drug abuse and addiction” (ESTEVE PHARMACEUTICALS, S.A., priority 2015, dated 2021).
Where two headings read alike, the source gives them in different places.

Molecular target: human σ1 receptor (Homo sapiens (Human), UniProt Q99720)
Assay: Human σ1 receptor radioligand assay
Type: binding
Experimental: Human σ1 Receptor Radioligand Assay
To investigate binding properties of test compounds to human σ1 receptor, transfected HEK-293 membranes and [^3H](+)-pentazocine (Perkin Elmer, NET-1056), as the radioligand, were used. The assay was carried out with 7 μg of membrane suspension, 5 nM of [^3H](+)-pentazocine in either absence or presence of either buffer or 10 μM Haloperidol for total and non-specific binding, respectively. Binding buffer contained Tris-HCl 50 mM at pH 8. Plates were incubated at 37° C. for 120 minutes. After the incubation period, the reaction mix was then transferred to Multiscreen HTS, FC plates (Millipore), filtered and plates were washed 3 times with ice-cold 10 mM Tris-HCL (pH7.4). Filters were dried and counted at approximately 40% efficiency in a MicroBeta scintillation counter (Perkin-Elmer) using EcoScint liquid scintillation cocktail

Sequence of human σ1 receptor (Q99720 whole entry): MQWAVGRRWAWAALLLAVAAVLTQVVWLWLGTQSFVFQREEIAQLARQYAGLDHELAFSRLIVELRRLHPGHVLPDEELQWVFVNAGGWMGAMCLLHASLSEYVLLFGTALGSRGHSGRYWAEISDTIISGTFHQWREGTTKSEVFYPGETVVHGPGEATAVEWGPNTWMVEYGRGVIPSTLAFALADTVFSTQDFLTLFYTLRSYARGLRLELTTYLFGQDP

Structure (SMILES) | Ki | Ki ([3H](+)-pentazocine radioligand, transfected HEK-293 membranes, read-out: Ki-σ1)
CCN1CC2(CCN(CCC(C)(C)C)CC2)O[C@@H](C)C1=O [Example 52, (S)-9-(3,3-dimethylbutyl)-4-ethyl-2-methyl-1-oxa-4,9-diazaspiro[5.5]undecan-3-one] | 100 to 500 nM | –
CCN1CC(C)OC2(CCN(CCc3ccccc3)CC2)C1 (centres unmarked) [Example 112, 4-Ethyl-2-methyl-9-phenethyl-1-oxa-4,9-diazaspiro[5.5]undecane] | – | < 100 nM
